Experimental data taken from US12162861B2, “Dopamine D3 receptor selective antagonists/partial agonists; method of making; and use thereof” (THE UNITED STATES OF AMERICA, AS REPRESENTED BY THE …, priority 2016, dated 2024).
pEC50, pKi: −log10 of the molar value. “Also recorded” adds a separate entry of the source.

How the values were obtained:
[1] = target: T1, human dopamine D3R (Homo sapiens, UniProt P35462); assay: D3R mitogenesis assay in CHO cells; format: cell-based; details: stimulation of mitogenesis, CHO cells with human D3R; read-out: Agonist EC50 ± SEM
T1 construct: expressed in transfected cells; host or cells: CHO

[2] = target: T2, human D3R (Homo sapiens, UniProt P35462); assay: Radioligand competition binding, [3H]N-methylspiperone, D3R; details: Table 1A; HEK 293 cells transfected with hD3R, [3H]N-methylspiperone; read-out: D3R K ± SEM
T2 construct: expressed in transfected cells; host or cells: HEK293
Procedure: Binding at dopamine D2-like receptors was determined using previously described methods. […] Upon reaching 80-90% confluence, cells were harvested using pre-mixed Earle's Balanced Salt Solution (EBSS) with 5 μM EDTA (Life Technologies) and centrifuged at 3000 rpm for 10 min at 21° C. The supernatant was removed and the pellet was resuspended in 10 mL hypotonic lysis buffer (5 mM MgCl2·6H2O, 5 mM Tris, pH 7.4 at 4° C.) and centrifuged at 20,000 rpm for 30 min at 4° C. The pellet was then resuspended in fresh EBSS buffer made from 8.7 g/L Earle's Balanced Salts without phenol red (US Biological, Salem, MA), 2.2 g/L sodium bicarbonate, pH to 7.4. A Bradford protein assay (Bio-Rad, Hercules, CA) was used to determine the protein concentration and membranes were diluted to 500 μg/mL and stored in a −80° C. freezer for later use.
Radioligand competition binding experiments were conducted using thawed membranes. Test compounds were freshly dissolved in 30% DMSO and 70% H2O to a stock concentration of 100 μM. To assist the solubilization of free-base compounds, 10 μl of glacial acetic acid was added along with the DMSO. Each test compound was then diluted into 13 half-log serial dilutions using 30% DMSO vehicle; final test concentrations ranged from 10 μM to 10 pM. Previously frozen membranes were diluted in fresh EBSS to a 100 μg/mL (for hD2R or hD3R) or 200 μg/mL (hD4R) stock for binding. Radioligand competition experiments were conducted in glass tubes containing 300 μl fresh EBSS buffer with 0.2 mM sodium metabisulfite, 50 μl of diluted test compound, 100 μl of membranes (10 μg total protein for hD2R or hD3R, 20 μg total protein for hD4R), and 50 μl of [^3H]N-methylspiperone (0.4 nM final concentration; Perkin Elmer). Nonspecific binding was determined using 10 μM butaclamol (Sigma-Aldrich, St. Louis, MO) and total binding was determined with 30% DMSO vehicle. All compound dilutions were tested in triplicate and the reaction incubated for one hour at room temperature. The reaction was terminated by filtration through Whatman GF/B filters, presoaked for one hour in 0.5% polyethylenimine, using a Brandel R48 filtering manifold (Brandel Instruments, Gaithersburg, MD). The filters were washed 3 times with 3 mL of ice cold EBSS buffer and transferred to scintillation vials. […] IC50 values for each compound were determined from dose-response curves and Ki values were calculated using the Cheng-Prusoff equation; these analyses were performed using GraphPad Prism version 5.00 for Windows (GraphPad Software, San Diego, CA). Reported Ki values were determined from least three independent experiments.

[3] = Phase I metabolic stability in monkey liver microsomes; format: in vitro ADME, rhesus monkey; details: FIG. 1; 10 μM, 0.5 mg/mL microsomes
Procedure: Methods: Phase I metabolic stability assay was conducted in rat and rhesus monkey liver microsomes. For phase I metabolism, the reaction was carried out with 100 mM potassium phosphate buffer, pH 7.4, in the presence of NADPH regenerating system (1.3 mM NADPH, 3.3 mM glucose 6-phosphate, 3.3 mM MgCl2, 0.4 U/mL glucose-6-phosphate dehydrogenase, 50 μM sodium citrate). Reactions in triplicate were initiated by addition of the liver microsomes to the incubation mixture (compound final concentration was 10 μM; 0.5 mg/mL microsomes). Negative controls in the absence of cofactors were carried out to determine the specific cofactor-free degradation. Compound disappearance was monitored via LC/MS/MS. Chromatographic analysis was performed using an Accela™ ultra high-performance system consisting of an analytical pump, and an autosampler coupled with TSQ Vantage mass spectrometer (Thermo Fisher Scientific Inc., Waltham MA). […] The mobile phase used was composed of 0.1% Formic Acid in Acetonitrile and 0.1% Formic Acid in H2O with gradient elution, starting with 10% (organic) linearly increasing to 99% up to 2 min, maintaining at 99% (2-2.5 min) and re-equilibrating to 10% by 2.7 min. The total run time for each analyte was 5.0 min.

[4] = system: squirrel monkeys; assay: Food self-administration in squirrel monkeys; format: in vivo, squirrel monkey (Saimiri sciureus); details: squirrel monkeys, 1, 3, and 10 mg/kg i.m., FIG. 8
Description: Subjects: Seven adult male squirrel monkeys (Saimiri sciureus) weighing 0.8 to 1.1 kg were housed in individual cages in a temperature- and humidity-controlled room with unrestricted access to water. […] The monkeys were trained to self-administer either THC or food pellets prior to the study. Monkeys were fed (approximately two hours after the session) a daily food ration consisting of biscuits of high protein monkey diet (Lab Diet 5045, PMI Nutrition International, Richmond, Indiana). The number of biscuits (8-14) was determined for each monkey individually to maintain their body weights at a constant level throughout the study. Monkeys self-administering food pellets had the number of biscuits adjusted to maintain the motivation to perform a food-reinforced task. Fresh fruits, vegetables and environmental enrichment were provided daily. […]
Data analysis: The number of reinforcements (injections or pellets) per session represents total number of injections delivered during each 1-hour session. The rates of responding are expressed as responses per second averaged over the 1 h session, with time and responding during time-outs not included in calculations. Data are expressed as mean response rates and numbers of reinforcements per session ±SEM. […]

[5] = target: cannabinoid CB1 receptor (Homo sapiens, UniProt P21554); assay: Binding to cannabinoid CB1 receptor
cannabinoid CB1 receptor, sequence (P21554 whole entry): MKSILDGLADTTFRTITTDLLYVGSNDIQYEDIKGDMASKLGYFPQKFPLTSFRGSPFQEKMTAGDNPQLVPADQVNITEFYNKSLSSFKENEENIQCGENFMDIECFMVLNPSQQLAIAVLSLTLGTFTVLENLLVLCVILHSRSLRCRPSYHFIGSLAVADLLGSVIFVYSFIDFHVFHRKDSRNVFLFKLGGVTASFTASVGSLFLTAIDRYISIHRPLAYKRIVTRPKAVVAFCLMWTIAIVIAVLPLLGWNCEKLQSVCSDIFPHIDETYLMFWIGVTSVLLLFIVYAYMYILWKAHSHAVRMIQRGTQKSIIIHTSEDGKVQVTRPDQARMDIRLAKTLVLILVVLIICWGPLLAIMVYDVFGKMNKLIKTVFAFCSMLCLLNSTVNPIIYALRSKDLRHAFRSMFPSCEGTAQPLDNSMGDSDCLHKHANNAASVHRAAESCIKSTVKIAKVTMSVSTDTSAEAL

T2 sequence (P35462 whole entry): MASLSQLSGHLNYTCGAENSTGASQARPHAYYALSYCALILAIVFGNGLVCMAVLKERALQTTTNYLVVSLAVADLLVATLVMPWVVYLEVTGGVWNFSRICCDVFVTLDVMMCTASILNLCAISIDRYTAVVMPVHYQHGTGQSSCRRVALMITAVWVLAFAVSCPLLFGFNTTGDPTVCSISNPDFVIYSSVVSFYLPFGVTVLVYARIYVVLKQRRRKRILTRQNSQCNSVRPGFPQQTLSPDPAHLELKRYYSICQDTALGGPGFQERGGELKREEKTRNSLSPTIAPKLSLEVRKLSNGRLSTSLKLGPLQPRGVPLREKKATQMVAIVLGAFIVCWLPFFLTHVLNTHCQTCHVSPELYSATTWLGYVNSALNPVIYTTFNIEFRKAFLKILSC
T1 sequence (P35462 whole entry): as above

- pEC50 [1]: < 5.08
- pKi [2]: 8.20
- binding to cannabinoid CB1 receptor [5]: does not bind
SMILES: CCc1cc(Cl)c(OC)c(N2CCN(CC(O)CCNC(=O)c3cc4ccccc4[nH]3)CC2)c1 (racemic) [Compound 29, N-(4-(4-(3-chloro-5-ethyl-2-methoxyphenyl)piperazin-1-yl)-3-hydroxybutyl)-1H-indole-2-carboxamide]
- metabolic stability in monkey liver microsomes versus PG648 [3]: improved metabolic stability as compared to Compound 1; also recorded: surprisingly high metabolic stability
- food self-administration [4]: has no effect on food self-administration; also recorded: without affecting food self-administration
- food self-administration ([4]; listed as (±)-29): no effect on food self-administration
